Assay results taken from ChEMBL document CHEMBL3091317, “Inhibition of cholinesterase and monoamine oxidase-B activity by Tacrine-Homoisoflavonoid hybrids” (Bioorg Med Chem, 2013).
Calls of active or inactive are those of the source. The rule behind the calls is not given here.

What was measured:
[1] = molecular target: T1, Amine oxidase [flavin-containing] B (Homo sapiens, UniProt P27338)
T1 sequence (P27338 whole entry): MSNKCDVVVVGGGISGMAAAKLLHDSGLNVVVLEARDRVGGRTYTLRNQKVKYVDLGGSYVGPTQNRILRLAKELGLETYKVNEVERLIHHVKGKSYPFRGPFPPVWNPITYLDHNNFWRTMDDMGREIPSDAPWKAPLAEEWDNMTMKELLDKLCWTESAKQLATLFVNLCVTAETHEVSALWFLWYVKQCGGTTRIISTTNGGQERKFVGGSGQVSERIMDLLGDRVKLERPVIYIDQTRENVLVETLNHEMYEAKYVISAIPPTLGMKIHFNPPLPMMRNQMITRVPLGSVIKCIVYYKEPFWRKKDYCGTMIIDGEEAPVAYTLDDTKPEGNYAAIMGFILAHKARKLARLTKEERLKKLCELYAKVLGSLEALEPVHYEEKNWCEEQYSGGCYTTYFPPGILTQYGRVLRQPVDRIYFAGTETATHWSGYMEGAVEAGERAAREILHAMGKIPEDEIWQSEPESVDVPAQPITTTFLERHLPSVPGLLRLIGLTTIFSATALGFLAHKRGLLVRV
Description: Inhibition of human recombinant MAO-B using benzylamine as substrate preincubated for 15 mins under dark condition followed by substrate addition measured after 20 mins by fluorescence assay

[2] = molecular target: T2, Amine oxidase [flavin-containing] A (Homo sapiens, UniProt P21397); conditions: 20 min, read-out: INH
T2 sequence (P21397 whole entry): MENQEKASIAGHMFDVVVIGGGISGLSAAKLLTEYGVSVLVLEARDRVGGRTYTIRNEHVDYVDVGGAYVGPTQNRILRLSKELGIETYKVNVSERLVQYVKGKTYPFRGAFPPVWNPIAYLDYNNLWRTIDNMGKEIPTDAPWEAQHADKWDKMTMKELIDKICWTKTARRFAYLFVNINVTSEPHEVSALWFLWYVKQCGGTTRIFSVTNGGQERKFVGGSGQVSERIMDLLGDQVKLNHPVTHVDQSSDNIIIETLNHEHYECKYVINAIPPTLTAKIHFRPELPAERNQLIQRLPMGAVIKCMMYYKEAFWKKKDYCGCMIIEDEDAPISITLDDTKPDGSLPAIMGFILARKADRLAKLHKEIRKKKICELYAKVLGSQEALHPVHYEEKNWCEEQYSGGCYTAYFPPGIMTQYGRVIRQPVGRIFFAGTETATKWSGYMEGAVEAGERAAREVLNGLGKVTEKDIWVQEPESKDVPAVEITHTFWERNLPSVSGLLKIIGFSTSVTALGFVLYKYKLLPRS
Description: Inhibition of human recombinant MAO-A using p-tyramine as substrate assessed as formation of H2O2 at 100 uM preincubated for 15 mins under dark condition followed by substrate addition measured after 20 mins by fluorescence assay relative to control

Cholinesterase = Cholinesterase (Equus caballus, UniProt P81908)
Description: Inhibition of horse serum BuChE using butylthiocholine chloride as substrate preincubated for 15 mins followed by substrate addition measured every 1 min by Ellman method

Acetylcholinesterase [3] = molecular target: Acetylcholinesterase (Electrophorus electricus, UniProt O42275)
Description: Inhibition of electric eel AChE using acetylthiocholine chloride as substrate preincubated for 15 mins followed by substrate addition measured every 1 min by Ellman method

in vitro = conditions: PAMPA
Description: Permeability of the compound at 100 mg/mL after 10 hrs by PAMPA

Acetylcholinesterase [4] = molecular target: T3, Acetylcholinesterase (Homo sapiens, UniProt P22303); experiment: Inhibition of human erythrocytic AChE using acetylthiocholine chloride as substrate preincubated for 15 mins followed by substrate addition measured every 1 min by Ellman method
[5] = molecular target: T1, Amine oxidase [flavin-containing] B; experiment: Inhibition of human recombinant MAO-B using benzylamine as substrate at 20 uM preincubated for 15 mins under dark condition followed by substrate addition measured after 20 mins by fluorescence assay
[6] = molecular target: T1, Amine oxidase [flavin-containing] B; experiment: Irreversible inhibition of human recombinant MAO-B at 400 nM preincubated for 15 mins followed by repeated washing by centrifugation-ultrafiltration method relative to control
[7] = molecular target: T1, Amine oxidase [flavin-containing] B; experiment: Irreversible inhibition of human recombinant MAO-B at 1 uM preincubated for 15 mins followed by repeated washing by centrifugation-ultrafiltration method relative to control
[8] = molecular target: T1, Amine oxidase [flavin-containing] B; experiment: Inhibition of human recombinant MAO-B at 1 uM incubated for 15 mins prior to washing relative to control; conditions: 0.25 h
[9] = molecular target: T1, Amine oxidase [flavin-containing] B; experiment: Inhibition of human recombinant MAO-B at 400 nM incubated for 15 mins prior to washing relative to control; conditions: 0.25 h
Acetylcholinesterase [10] = molecular target: T3, Acetylcholinesterase; experiment: Inhibition of AChE (unknown origin)-induced beta-amyloid aggregation
[11] = molecular target: Acetylcholinesterase (Electrophorus electricus) (UniProt O42275); experiment: Mixed-type inhibition of electric eel AChE using acetylthiocholine chloride as substrate assessed as increase in Km at 60 to 100 nM preincubated for 15 mins followed by substrate addition by Lineweaver-Burk plot analysis
[12] = molecular target: Acetylcholinesterase (Electrophorus electricus) (UniProt O42275); experiment: Mixed-type inhibition of electric eel AChE using acetylthiocholine chloride as substrate assessed as decrease in Vmax at 60 to 100 nM preincubated for 15 mins followed by substrate addition by Lineweaver-Burk plot analysis

Cholinesterase, sequence (P81908 whole entry): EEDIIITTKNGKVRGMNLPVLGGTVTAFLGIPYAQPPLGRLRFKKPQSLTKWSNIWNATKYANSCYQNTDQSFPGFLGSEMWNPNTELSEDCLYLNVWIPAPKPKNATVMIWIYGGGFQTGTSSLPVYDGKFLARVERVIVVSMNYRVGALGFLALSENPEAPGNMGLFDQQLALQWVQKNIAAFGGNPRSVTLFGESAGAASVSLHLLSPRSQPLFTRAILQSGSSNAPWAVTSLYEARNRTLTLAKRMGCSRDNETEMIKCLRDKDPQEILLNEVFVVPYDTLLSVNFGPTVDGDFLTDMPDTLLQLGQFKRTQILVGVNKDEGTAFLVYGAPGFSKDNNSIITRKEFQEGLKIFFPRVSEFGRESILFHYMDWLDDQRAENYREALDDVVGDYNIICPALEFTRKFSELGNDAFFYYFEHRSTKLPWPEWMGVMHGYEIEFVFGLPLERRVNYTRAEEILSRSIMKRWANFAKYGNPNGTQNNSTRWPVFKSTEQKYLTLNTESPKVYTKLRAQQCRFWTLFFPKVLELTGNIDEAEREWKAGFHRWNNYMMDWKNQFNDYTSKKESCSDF
Acetylcholinesterase (Electrophorus electricus, UniProt O42275), sequence (O42275 whole entry): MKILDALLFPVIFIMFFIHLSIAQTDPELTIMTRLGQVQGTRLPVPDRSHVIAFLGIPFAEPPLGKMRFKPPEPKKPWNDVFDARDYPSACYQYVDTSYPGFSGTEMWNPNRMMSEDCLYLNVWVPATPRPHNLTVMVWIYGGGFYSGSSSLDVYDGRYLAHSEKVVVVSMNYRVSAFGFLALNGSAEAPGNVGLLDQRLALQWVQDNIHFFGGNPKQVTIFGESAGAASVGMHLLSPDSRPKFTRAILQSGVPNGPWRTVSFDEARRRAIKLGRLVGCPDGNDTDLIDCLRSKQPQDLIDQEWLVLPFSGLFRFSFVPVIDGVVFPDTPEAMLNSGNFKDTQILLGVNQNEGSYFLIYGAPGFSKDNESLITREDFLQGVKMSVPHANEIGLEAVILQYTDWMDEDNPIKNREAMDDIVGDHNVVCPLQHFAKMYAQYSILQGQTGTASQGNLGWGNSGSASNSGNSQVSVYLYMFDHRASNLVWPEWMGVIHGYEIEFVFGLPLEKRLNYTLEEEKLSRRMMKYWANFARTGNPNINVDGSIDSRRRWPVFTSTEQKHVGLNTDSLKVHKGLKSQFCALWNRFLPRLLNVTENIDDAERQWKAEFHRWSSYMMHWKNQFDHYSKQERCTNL
T3 sequence (P22303 whole entry): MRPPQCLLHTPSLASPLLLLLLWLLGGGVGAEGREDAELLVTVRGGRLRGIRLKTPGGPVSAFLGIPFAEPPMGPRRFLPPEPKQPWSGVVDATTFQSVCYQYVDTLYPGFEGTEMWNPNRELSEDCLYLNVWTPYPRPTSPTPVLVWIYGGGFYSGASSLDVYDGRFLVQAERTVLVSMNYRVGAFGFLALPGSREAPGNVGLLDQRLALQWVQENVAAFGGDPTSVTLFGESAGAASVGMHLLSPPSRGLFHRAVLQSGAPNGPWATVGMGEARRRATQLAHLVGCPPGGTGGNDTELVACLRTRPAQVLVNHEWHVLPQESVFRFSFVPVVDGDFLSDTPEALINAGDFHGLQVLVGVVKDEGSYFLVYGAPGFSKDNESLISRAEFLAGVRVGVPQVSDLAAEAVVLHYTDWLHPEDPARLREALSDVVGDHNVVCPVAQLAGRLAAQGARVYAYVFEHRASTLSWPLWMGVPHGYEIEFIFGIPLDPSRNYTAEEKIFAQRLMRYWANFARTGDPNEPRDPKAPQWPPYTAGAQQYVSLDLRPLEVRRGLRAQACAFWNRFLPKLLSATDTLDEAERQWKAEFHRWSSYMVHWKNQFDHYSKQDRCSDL
Acetylcholinesterase (Electrophorus electricus), sequence (O42275 24-633 limits assumed): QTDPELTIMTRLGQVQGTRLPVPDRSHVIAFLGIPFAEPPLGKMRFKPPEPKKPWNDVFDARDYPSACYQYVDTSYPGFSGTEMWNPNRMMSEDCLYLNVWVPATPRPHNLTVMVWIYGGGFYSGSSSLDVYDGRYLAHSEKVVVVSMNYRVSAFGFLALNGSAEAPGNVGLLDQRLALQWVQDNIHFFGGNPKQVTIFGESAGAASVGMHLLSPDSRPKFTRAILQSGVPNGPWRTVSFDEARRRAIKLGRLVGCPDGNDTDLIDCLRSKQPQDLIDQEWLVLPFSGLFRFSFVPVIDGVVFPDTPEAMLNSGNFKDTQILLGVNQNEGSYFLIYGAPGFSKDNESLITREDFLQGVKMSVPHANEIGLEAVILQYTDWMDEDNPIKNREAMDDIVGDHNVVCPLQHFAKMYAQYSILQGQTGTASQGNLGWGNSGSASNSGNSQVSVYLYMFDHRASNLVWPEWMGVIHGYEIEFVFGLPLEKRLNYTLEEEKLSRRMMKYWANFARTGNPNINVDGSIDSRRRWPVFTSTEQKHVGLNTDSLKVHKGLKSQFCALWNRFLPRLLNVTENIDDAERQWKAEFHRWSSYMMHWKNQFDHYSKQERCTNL

O=C1/C(=C/c2ccc(Cl)cc2)COc2cc(OCCCCCCNc3c4c(nc5ccccc35)CCCC4)ccc21
IC50 [1]: 15400 nM | inhibition at 100 µM [2]: 23.3% | IC50 (Cholinesterase): 44.5 nM | IC50 (Acetylcholinesterase [3]): 101 nM | Papp at 10 h, 100 mg/mL (in vitro): 1.1 ×10⁻⁶ cm/s

COc1ccc(/C=C2\COc3cc(OCCCCCCCCCNc4c5c(nc6ccccc46)CCCC5)ccc3C2=O)cc1
IC50 [1]: 437 nM | inhibition at 100 µM [2]: 60.2% | IC50 (Cholinesterase): 30.9 nM | IC50 (Acetylcholinesterase [3]): 169 nM

CN(C)c1ccc(/C=C2\COc3cc(OCCCCCCNc4c5c(nc6ccccc46)CCCC5)ccc3C2=O)cc1
IC50 [1]: 1030 nM | inhibition at 100 µM [2]: 31.5% | IC50 (Cholinesterase): 65.7 nM | IC50 (Acetylcholinesterase [3]): 115 nM

COc1cccc(/C=C2\COc3cc(OCCCCCCNc4c5c(nc6ccccc46)CCCC5)ccc3C2=O)c1
IC50 [1]: 2200 nM | inhibition at 100 µM [2]: 54.1% | IC50 (Cholinesterase): 47.1 nM | IC50 (Acetylcholinesterase [3]): 142 nM

COc1ccc(/C=C2\COc3cc(O)ccc3C2=O)cc1 [BONDUCELLIN]
IC50 [1]: 1060 nM | inhibition at 100 µM [2]: 24.1% | IC50 (Cholinesterase): > 100000 nM | IC50 (Acetylcholinesterase [3]): > 100000 nM

COc1ccc(/C=C2\COc3cc(OCCCCCCCCNc4c5c(nc6ccccc46)CCCC5)ccc3C2=O)cc1
IC50 [1]: 518 nM | IC50 (Acetylcholinesterase [4]): 122 nM | inhibition at 100 µM [2]: 64.8% | IC50 (Cholinesterase): 93.1 nM | IC50 (Acetylcholinesterase [3]): 68.5 nM | Papp at 10 h, 100 mg/mL (in vitro): 4.9 ×10⁻⁶ cm/s

COc1cc(/C=C2\COc3cc(OCCCCCCNc4c5c(nc6ccccc46)CCCC5)ccc3C2=O)cc(OC)c1OC
inhibition (INH) [5]: Not Active | inhibition at 100 µM [2]: 25.7% | IC50 (Cholinesterase): 109 nM | IC50 (Acetylcholinesterase [3]): 106 nM

COc1ccc(/C=C2\COc3cc(OCCCCCNc4c5c(nc6ccccc46)CCCC5)ccc3C2=O)cc1
IC50 [1]: 1160 nM | IC50 (Acetylcholinesterase [4]): 98 nM | inhibition at 100 µM [2]: 58.4% | IC50 (Cholinesterase): 23.6 nM | IC50 (Acetylcholinesterase [3]): 78.3 nM | Papp at 10 h, 100 mg/mL (in vitro): 6.6 ×10⁻⁶ cm/s

COc1ccccc1/C=C1\COc2cc(OCCCCCCNc3c4c(nc5ccccc35)CCCC4)ccc2C1=O
IC50 [1]: 1790 nM | inhibition at 100 µM [2]: 70.3% | IC50 (Cholinesterase): 29.9 nM | IC50 (Acetylcholinesterase [3]): 151 nM

COc1ccc(/C=C2\COc3cc(OCCCCCCNc4c5c(nc6ccccc46)CCCC5)ccc3C2=O)cc1OC
IC50 [1]: 19700 nM | inhibition at 100 µM [2]: 51.6% | IC50 (Cholinesterase): 34.7 nM | IC50 (Acetylcholinesterase [3]): 117 nM

COc1ccc(/C=C2\COc3cc(OCCCCCCCCCCNc4c5c(nc6ccccc46)CCCC5)ccc3C2=O)cc1
IC50 [1]: 3430 nM | inhibition at 100 µM [2]: 69.6% | IC50 (Cholinesterase): 6.2 nM | IC50 (Acetylcholinesterase [3]): 888 nM

Cc1ccc(/C=C2\COc3cc(OCCCCCCNc4c5c(nc6ccccc46)CCCC5)ccc3C2=O)cc1
IC50 [1]: 1240 nM | inhibition at 100 µM [2]: 60.5% | IC50 (Cholinesterase): 54.6 nM | IC50 (Acetylcholinesterase [3]): 129 nM

CCN(CC)c1ccc(/C=C2\COc3cc(OCCCCCCNc4c5c(nc6ccccc46)CCCC5)ccc3C2=O)cc1
inhibition (INH) [5]: Not Active | inhibition at 100 µM [2]: 22.4% | IC50 (Cholinesterase): 235 nM | IC50 (Acetylcholinesterase [3]): 693 nM

COc1ccc(/C=C2\COc3cc(OCCCCCCCCNc4c5c(nc6cc(Cl)ccc46)CCCC5)ccc3C2=O)cc1
IC50 [1]: 1560 nM | inhibition at 100 µM [2]: 33.1% | IC50 (Cholinesterase): 612 nM | IC50 (Acetylcholinesterase [3]): 188 nM

COc1ccc(CC2COc3cc(OCCCCCCNc4c5c(nc6ccccc46)CCCC5)ccc3C2=O)cc1 (centres undefined)
IC50 [1]: 1110 nM | inhibition at 100 µM [2]: 78.2% | IC50 (Cholinesterase): 27.4 nM | IC50 (Acetylcholinesterase [3]): 91.7 nM | Papp at 10 h, 100 mg/mL (in vitro): 2.8 ×10⁻⁶ cm/s

COc1ccc(/C=C2\COc3cc(OCCCCCCNc4c5c(nc6ccccc46)CCCC5)ccc3C2=O)cc1
inhibition at 0.4 µM [6]: 33.5% | inhibition at 1 µM [7]: 67.5% | inhibition at 1 µM [8]: 78.4% | inhibition at 0.4 µM [9]: 47.1% | IC50 [1]: 401 nM | inhibition (Acetylcholinesterase [10]): Active | inhibition [11]: Active | inhibition [12]: Active | IC50 (Acetylcholinesterase [4]): 157 nM | inhibition at 100 µM [2]: 48.3% | IC50 (Cholinesterase): 33 nM | IC50 (Acetylcholinesterase [3]): 67.9 nM | Papp at 10 h, 100 mg/mL (in vitro): 6.8 ×10⁻⁶ cm/s

O=C1/C(=C/c2ccc(F)cc2)COc2cc(OCCCCCCNc3c4c(nc5ccccc35)CCCC4)ccc21
IC50 [1]: 1090 nM | IC50 (Acetylcholinesterase [4]): 105 nM | inhibition at 100 µM [2]: 58.4% | IC50 (Cholinesterase): 44.2 nM | IC50 (Acetylcholinesterase [3]): 70.1 nM | Papp at 10 h, 100 mg/mL (in vitro): 4 ×10⁻⁶ cm/s

COc1ccc(/C=C2\COc3cc(OCCCCCCNc4c5c(nc6cc(Cl)ccc46)CCCC5)ccc3C2=O)cc1
IC50 [1]: 1360 nM | inhibition at 100 µM [2]: 15.3% | IC50 (Cholinesterase): 25.9 nM | IC50 (Acetylcholinesterase [3]): 123 nM
